Measurements as given in US20240156790A1, “COMPOUNDS, COMPOSITIONS, AND METHODS FOR MODULATING FERROPTOSIS AND TREATING EXCITOTOXIC DISORDERS” (THE TRUSTEES OF COLUMBIA UNIVERSITY IN THE CITY OF NEW YORK, priority 2018, published 2024).
“Also recorded” adds a separate entry of the source. Read-outs that look alike come from different tables or passages of the source. Values belong to the compound of their own block, whether it stands above or below them.

Legend:
[1] = Microsomal stability, mouse liver microsomes (Table 1); assay type: in vitro ADME, Mouse: CD1; conditions: for half-life: liver microsomes; for average % remaining after 120 minutes: compounds with t1/2 > 120 min, in parentheses
Experimental: Each compound (1 μM) is incubated with mouse plasma, for 4 hours at 37° C., with shaking at 100 rpm. The concentration of compound in the buffer and plasma chambers is determined using LC-MS/MS. Metabolism of each compound is predicted using Sites of Metabolism (Schrodinger Suite), which combines intrinsic reactivity analysis (Hammett-Taft) with induced fit docking against 2C9, 2D6 and 3A4. This approach identifies 90% of known metabolism sites and has a false positive rate of 17%. The in vitro metabolic stability of each compound in mouse liver microsomes is determined. Pooled mouse liver microsomes are prepared and stored at −80° C. until needed. […]

HT-1080 cells [2] = experiment: Rescue activity of Fer-1 analogs: inhibition of erastin-, IKE- or RSL3-induced death (Alamar Blue viability); assay type: cell-based; conditions: Homo sapiens
Experimental: HT-1080 cells are cultured in DMEM containing 10% fetal bovine serum, 1% supplemented non-essential amino acids and 1% pen/strep mixture (Gibco) and maintained in a humidified environment at 37° C. with 5% CO2 in a tissue culture incubator. 1,000 HT-1080 cells are seeded per well in duplicate 384-well plates (Corning) using a BioMek FX liquid handling robot (Beckman Coulter). The next day, the medium is replaced with 36 μL of medium containing 10 μM erastin with 4 μL of medium containing a dilution series (previously prepared) of DMSO, Fer-1 (positive control) or Fer-1 analogs. […] Cells are incubated a further 6 hours and then the Alamar Blue fluorescence intensity recorded using a Victor 3 platereader (PerkinElmer)(ex/em 530/590). All experiments are performed at least twice and the background (no cells)-subtracted Alamar Blue values for each combination are averaged between replicates. The same procedure was repeated by replacing erastin (10 μM) with IKE (3 μM) or RSL3 (0.2 μM).

HT-1080 cells [3] = experiment: Rescue activity of selected Fer-1 analogs, dose-response in HT-1080 cells (cell titer glo); assay type: cell-based; conditions: for potency compared, in words: 0.2 μM RSL3, 10 μM erastin; for IC50: Homo sapiens, HT-1080, range 10 μM-0 μM, 48 hours; for toxicity (overall drop in viability): at 10 μM compound
Experimental: Selected Fer-1 analogs containing a pyridine moiety (FIG. 4) were tested to examine their efficacy and overall potency in inhibiting ferroptosis. For each of these compounds, dose-response curves were generated in HT-1080 cells looking at the effectiveness of the molecules in inhibiting ferroptosis induced by either 3 μM IKE or 0.2 μM RSL3, Fer-1 was used as a positive control. For each dose-response curve, 1,000 cells/well were seeded in a 384 well plate and allowed to adhere overnight prior to treating with compound from a daughter plate. Cells were treated for 48 hours, unless otherwise noted, prior to viability being analyzed using cell titer glo (40 μL per well). All liquid handling was performed using the BioMek. All samples were prepared in triplicate, unless otherwise noted.

[4] = Microsomal Stability Assay (Examples 6 and 8); assay type: in vitro ADME, mouse; conditions: for microsomal stability / half-life, in words: assessed over two hours
Experimental: (§1) To a 96-well polypropylene plate was added phosphate buffer (182.2 μL, pH 7.4, 100 mM) followed by addition of NADPH-regenerating system solution A (10 μL), and NADPH regenerating system solution B (2 μL) (Corning Gentest 3P NADPH regenerating system solution A (#451220) and B (#451200)). A stock solution of analog (0.8 μL. 5 mM) or fer-1 (positive control) was added and the mixture was warmed to 37° C. for 5 min. Mouse microsomes (CD-1, 20 mg/mL, Life Technologies) (5 μL, thawed in 37° C. water bath before use) were added. The resulting reaction mixture was kept at 37° C. with gentle agitation for the duration of the experiment. At selected time points (0, 1, 5, 10, 20, 30, 60 and 120 min) aliquots (15 μL) were withdrawn from the plate and quenched upon addition to cold methanol (60 μL), containing an internal standard (5 μM) in a separate 96-well polypropylene plate. At the completion of the final time-point, the samples were centrifuged at 4,000 rpm for 5 min at 4° C. The supernatant (40 μL) was withdrawn and transferred to a sample vial with insert. The samples were analyzed by LC-MS. LC-MS analysis was performed on a platform comprising a Thermo Scientific Dionex Ultimate 3000 and a Bruker amaZon SL equipped with an electrospray ionization source controlled by Bruker Hystar 3.2. Chromatographic separation was performed by injecting 5 μL of the sample onto an Agilent Eclipse Plus C18 column (2.1×50 mm, 3.5 μm) maintained at 20° C. The flow rate was maintained at 400 μL/min. The initial flow conditions were 80% solvent A (water containing 0.1% acetic acid) and 20% solvent B (methanol containing 0.1% acetic acid). Solvent B was raised to 80% over 0.50 min by 1.50 min. Solvent B was raised to 100% by 5.00 min and held there for 3.25 min. […] All analogs were detected in positive mode as [M+H]*. The percent of compound remaining at each time-point was calculated as the ratio of the integrated compound peak over the internal standard peak and standardized to the t=0 time-point. Values were plotted in GraphPad Prism 9 and fit with a one phase decay.
as §1, with “and NADPH-regenerating” for “and NADPH regenerating”, “rpm (1872 g)” for “rpm”, “[M+H]*. […]” for “[M+H]*. The percent of compound remaining at each time-point was calculated as the ratio of the integrated compound peak over the internal standard peak and standardized to the t=0 time-point. Values were plotted in GraphPad Prism 9 and fit with a one phase decay.”

HT-1080 cells [5] = experiment: Cell viability assays in HT-1080 cells, ferroptosis induced by IKE or RSL3 (Example 8); assay type: cell-based
Experimental: Cell culture assays were incubated at 37° C. with 5% CO2. HT-1080 cells were grown in DMEM (Corning) supplemented with 10% FBS (Life Technologies), 1% Penicillin-Streptomycin 10,000 U/mL (Gibco), and 1% MEM Non-Essential Amino Acids Solution 100× (Gibco). For cell viability assays, cells were trypsinized, counted, and seeded into 384-well white polypropylene plates at 1,000 cells/well, unless otherwise specified. After allowing cells to adhere overnight, compounds in DMSO stocks were arrayed in a 16-point dilution series prepared in a mother plate, and treated from a daughter plate, [DMSO]=0.28%. After 24 or 48 h, 50% CellTiter-Glo (Promega) 50% cell culture medium was added to each well and incubated at room temperature with shaking for 15 min. Luminescence was measured using a Victor X5 plate reader (PerkinElmer). All cell viability data were normalized to the DMSO vehicle condition. […] All 384w measurements were performed in triplicate
We first evaluated the efficacy of four pyridine analogs, TH-2-9-1, TH-2-31, TH-2-37-1, and TH-2-37-2, in suppressing ferroptosis induced by IKE and RSL3 in HT-1080 cells. […] We sought to determine whether incorporation of pyridine changed stability in mouse liver microsomes.

[6] = CD1, mouse, Mouse: CD1, read-out: Microsomal Stability t1/2
[7] = HT-1080, ^b 50% viability, HT-1080 treated with 3 μM IKE
[8] = HT-1080, ^c 50% viability, HT-1080 treated with 0.2 μM RSL3
[9] = HT-1080, ^a 50% viability, HT-1080 cells treated with 10 μM erastin
[10] = HT-1080, no footnote marker printed, inducer not stated

SMILES: Cc1noc(-c2cnc(NC3CCCCC3)c(NC3CCCCC3)c2)n1 [CFI-102]
- half-life [1, 6]: 30 to 60 min
- EC50 (HT-1080 cells [2]; [7]): 0.9 nM
- EC50 (HT-1080 cells [2]; [8]): 0.9 nM
- potency compared, in words (HT-1080 cells [3]; 3 μM IKE): the most potent analog for both IKE an RSL3
- IC50 (HT-1080 cells [3]; 0.2 μM RSL3, read-out: IC50 against RSL3): 10 to 20 nM
- IC50 (HT-1080 cells [3]; 3 μM IKE, read-out: IC50 against IKE): 10 to 20 nM
- toxicity (overall drop in viability) (HT-1080 cells [3]): appeared to be toxic
- concentration achieving full rescue (HT-1080 cells [3]; starting concentration 5 μM, treated 51 hours, IKE and RSL3): around 0.0001 μM

SMILES: CCCCCCNc1cc(C(=O)OC(C)(C)C)c(F)cc1NC12CC3CC(CC(C3)C1)C2 [CFI-A8]
- Microsomal Stability t1/2 ([1]; Mouse: CD1): Mouse: >120 min
- average % remaining after 120 minutes ([1]; Mouse: CD1): min (76.4%) Human: TBD Rat: TBD Dog: Pig: TBD
- EC50 (HT-1080 cells [2]; [7]): 20 nM
- EC50 (HT-1080 cells [2]; [8]): 19 nM

SMILES: CCCCCCNc1cc(C(=O)OC(C)(C)C)c(C)cc1NC12CC3CC(CC(C3)C1)C2 [CFI-A9]
- Microsomal Stability t1/2 ([1]; Mouse: CD1): Mouse: >120 min
- average % remaining after 120 minutes ([1]; Mouse: CD1): min (83.6%) Human: TBD Rat: TBD Dog Pig: TBD
- EC50 (HT-1080 cells [2]; [9]): 65 nM

SMILES: CC(C)(C)OC(=O)c1ccc(NC2CCCCC2)c(NC23CC4CC(CC(C4)C2)C3)c1 [CFI-L034]
- half-life ([1]; CD1 (mouse), mouse, human, in either mouse or human liver microsomes, read-out: T1/2): > 120 min
- half-life [1, 6]: > 120 min
- average % remaining after 120 minutes ([1]; Mouse: CD1): min (60.2%) Human: TBD Rat: TBD Dog: Pig: TBD
- EC50 (HT-1080 cells [2]; [10]): 166 nM

SMILES: C=C/C=C(/CN/C(=C/C(=C\C)C(=O)OCC)CNC(CC)CCC)C(=C)O (stereo not drawn) [CFI-M82]
- Microsomal Stability t1/2 ([1]; Mouse: CD1): Mouse: 10 min

SMILES: CC(C)(C)OC(=O)c1ccc(NC23CC4CC(CC(C4)C2)C3)c(NC2CCCCC2)c1 [DL032, tert-butyl 4-(((3s,5s,7s)-adamantan-1-yl)amino)-3-(cyclohexylamino)benzoate]
- microsomal stability / half-life, in words [4]: half-lives greater than two hours
- potency relative to fer-1 at suppressing ferroptosis, in words (HT-1080 cells [5]): more potent than fer-1

SMILES: CC(C)(C)OC(=O)c1ccc(NC2CCCCC2)c(NC23CC4CC(CC(C4)C2)C3)c1 [DL034, tert-butyl 3-(((3s,5s,7s)-adamantan-1-yl)amino)-4-(cyclohexylamino)benzoate]
- microsomal stability / half-life, in words [4]: half-lives greater than two hours
- potency relative to fer-1 at suppressing ferroptosis, in words (HT-1080 cells [5]): less potent than fer-1

SMILES: Cc1cccc(C)c1CNc1cc(C(=O)OC(C)(C)C)ccc1NC12CC3CC(CC(C3)C1)C2 [DL047, tert-butyl 4-(((3s,5s,7s)-adamantan-1-yl)amino)-3-((2,6-dimethylbenzyl)amino)benzoate]
- microsomal stability / half-life, in words [4]: half-lives greater than two hours
- potency relative to fer-1 at suppressing ferroptosis, in words (HT-1080 cells [5]): less potent than fer-1

SMILES: COc1cnc(NC2CCCCC2)c(N)c1 [TH-2-5, N^2-cyclohexyl-5-methoxypyridine-2,3-diamine]
- EC50 (HT-1080 cells [2]; [10]): > 350 nM
- death observed with RSL3 (HT-1080 cells [3]; 0.2 μM RSL3, inhibitor range 10 μM-0 μM): No death was observed

SMILES: Cc1noc(-c2cnc(NC3CCCCC3)c(N)c2)n1 [TH-2-30]
- EC50 (HT-1080 cells [2]; [7]): 461 nM
- EC50 (HT-1080 cells [2]; [8]): 118 nM
- potency compared, in words (HT-1080 cells [3]; 3 μM IKE): relatively less potent; also recorded: potency comparable to Fer-1 against IKE and RSL3
- toxicity (overall drop in viability) (HT-1080 cells [3]): appeared to be toxic

Continued, in another order:

- half-life [1, 6]: 30.2 to 32.4 min
SMILES: Cc1noc(-c2ccc(NC34CC5CC(CC(C5)C3)C4)c(N)c2)n1 [CFI-4066]
- EC50 (HT-1080 cells [2]; [9]): 123 nM

- half-life at 20 µM ([4]; CD-1, mouse, liver microsomes, pH 7.4, text, read-out: half-life in mouse liver microsomes): < 60 min
- microsomal stability / half-life, in words [4]: the least stable compound
SMILES: Nc1cc(-c2ncco2)ccc1NC1CCCCC1 [PHB4051, N1-cyclohexyl-4-(oxazol-2-yl)benzene-1,2-diamine]
- potency relative to fer-1 at suppressing ferroptosis, in words (HT-1080 cells [5]): more potent than fer-1

- microsomal stability / half-life, in words [4]: half-lives greater than two hours
SMILES: Cc1noc(-c2ccc(NC34CC5CC(CC(C5)C3)C4)c(NC3CCCCC3)c2)n1 [PHB4083, N1-((3s,5s,7s)-adamantan-1-yl)-N2-cyclohexyl-4-(3-methyl-1,2,4-oxadiazol-5-yl)benzene-1,2-diamine]
- potency relative to fer-1 at suppressing ferroptosis, in words (HT-1080 cells [5]): more potent than fer-1
